# Reference: paper PMC8772704, “Quantification of Fosfomycin in Combination with Nine Antibiotics in Human Plasma and Cation-Adjusted Mueller-Hinton II Broth via LCMS” (Antibiotics, 2022)
# What was measured:
# [1] = Long-term storage stability of antibiotics in combination with fosfomycin spiked in plasma/CAMHB (−30 °C, −80 °C); assay type: physicochemical; details: for Stability verdict (within ±15% of nominal): CAMHB samples stored at −30 °C; for Mean accuracy (%), Table S15 / Mean accuracy (%), Table S17 / Mean accuracy (%), Table S16 / Mean accuracy (%), Table S18: CAMHB; for Mean accuracy (%), Table S15 / Mean accuracy (%), Table S17 / Mean accuracy (%), Table S16 / Mean accuracy (%), Table S18 / Mean accuracy (%), Table S11 / Mean accuracy (%), Table S13 / Mean accuracy (%), Table S12 / Mean accuracy (%), Table S14: combination with fosfomycin; for Mean accuracy (%), Table S15 / Mean accuracy (%), Table S11: 2 weeks at -30 °C; for Mean accuracy (%), Table S17 / Mean accuracy (%), Table S13: 2 weeks at -80 °C; for Mean accuracy (%), Table S16 / Mean accuracy (%), Table S12: 4 weeks at -30 °C; for Mean accuracy (%), Table S18 / Mean accuracy (%), Table S14: 4 weeks at -80 °C; for Mean accuracy (%), Table S11 / Mean accuracy (%), Table S13 / Mean accuracy (%), Table S12 / Mean accuracy (%), Table S14: plasma
# Experimental: (§1) The stability of fosfomycin in combination with other antibiotics in plasma/CAMHB was evaluated under various operational conditions. Spiked plasma/CAMHB samples were evaluated at 7 h and 15 h in the autosampler at 4 °C. Long-term stability was evaluated up to 4 weeks of antibiotic-spiked plasma/CAMHB samples at LQC, MQC, and HQC concentrations stored at −30 °C and −80 °C.
# [2] = Autosampler stability at 4 °C of extracted antibiotic-spiked plasma/CAMHB samples; details: for Mean accuracy (%), Table S8 / Mean accuracy (%), Table S10: CAMHB extracted samples; for Mean accuracy (%), Table S8 / Mean accuracy (%), Table S7: 7 h autosampler 4 °C; for Mean accuracy (%), Table S10 / Mean accuracy (%), Table S9: 15 h autosampler 4 °C; for Mean accuracy (%), Table S7 / Mean accuracy (%), Table S9: plasma extracted samples
# Experimental: as §1
# [3] = 32-day stability of stock solutions stored at −80 °C; assay type: physicochemical; details: stock solution stored at -80 °C; peak area Day 32 vs Day 1
# Experimental: Stability of stock solutions
# All stock solutions of antibiotics and their corresponding stable-isotope variants were measured prior to cold storage at -80 °C and tested at 32 days later.
# Stability was determined by comparing the peak area of each drug between its Day 1 and Day 32 measurement. Acceptable criteria for stability was met if the […]
# [4] = HQC: nominal mg/L CAZ 150, FEP 200, PIP 250, ATM 300, MEM 200, DOR 175, LVX 30, CEFT 250, TZB 87.5, TGC 20, AVI 30, FOF 1000
# [5] = LQC: nominal 1 mg/L (levofloxacin, avibactam 0.5; fosfomycin 10)
# [6] = MQC: nominal mg/L CAZ 75, FEP 100, PIP 150, ATM 150, MEM 100, DOR 87.5, LVX 15, CEFT 125, TZB 43.75, TGC 10, AVI 15, FOF 500
"Mean accuracy (%), Table S15 ([1]; HQC (nominal as E15))","Mean accuracy (%), Table S15 ([1]; LQC (nominal as E13))","Mean accuracy (%), Table S15 ([1]; MQC (nominal as E14))","Mean accuracy (%), Table S17 ([1]; HQC (nominal as E15))","Mean accuracy (%), Table S17 ([1]; LQC (nominal as E13))","Mean accuracy (%), Table S17 ([1]; MQC (nominal as E14))","Mean accuracy (%), Table S16 ([1]; HQC (nominal as E15))","Mean accuracy (%), Table S16 ([1]; LQC (nominal as E13))","Mean accuracy (%), Table S16 ([1]; MQC (nominal as E14))","Mean accuracy (%), Table S18 ([1]; HQC (nominal as E15))","Mean accuracy (%), Table S8 ([2]; HQC (nominal as E15))","Mean accuracy (%), Table S8 ([2]; LQC (nominal as E13))","Mean accuracy (%), Table S8 ([2]; MQC (nominal as E14))","Mean accuracy (%), Table S10 ([2]; HQC (nominal as E15))","Mean accuracy (%), Table S10 ([2]; LQC (nominal as E13))","Mean accuracy (%), Table S10 ([2]; MQC (nominal as E14))","Mean accuracy (%), Table S7 [2, 4]","Mean accuracy (%), Table S7 [2, 5]","Mean accuracy (%), Table S7 [2, 6]",32 Day Stability (%) [3],Compound,other results
87.2%,98.8%,87.3%,102.3%,98.9%,106.1%,91.2%,87.0%,100.6%,91.0%,103.5%,100.6%,103.1%,103.2%,101.8%,100.2%,110.0%,106.7%,112.7%,102.57%,"CN(C)c1cc(NC(=O)CNC(C)(C)C)c(O)c2c1C[C@H]1C[C@H]3[C@H](N(C)C)C(O)=C(C(N)=O)C(=O)[C@@]3(O)C(O)=C1C2=O [Tigecycline, tigecycline]","Mean accuracy (%), Table S18 ([1]; LQC (nominal as E13)): 87.6%; Mean accuracy (%), Table S18 ([1]; MQC (nominal as E14)): 95.3%; Mean accuracy (%), Table S11 ([1]; HQC (nominal as E15)): 102.5%; Mean accuracy (%), Table S11 ([1]; LQC (nominal as E13)): 111.9%; Mean accuracy (%), Table S11 ([1]; MQC (nominal as E14)): 98.9%; Mean accuracy (%), Table S13 ([1]; HQC (nominal as E15)): 107.8%; Mean accuracy (%), Table S13 ([1]; LQC (nominal as E13)): 109.8%; Mean accuracy (%), Table S13 ([1]; MQC (nominal as E14)): 100.1%; Mean accuracy (%), Table S12 ([1]; HQC (nominal as E15)): 110.7%; Mean accuracy (%), Table S12 ([1]; LQC (nominal as E13)): 97.8%; Mean accuracy (%), Table S12 ([1]; MQC (nominal as E14)): 102.8%; Mean accuracy (%), Table S14 ([1]; HQC (nominal as E15)): 112.3%; Mean accuracy (%), Table S14 ([1]; LQC (nominal as E13)): 96.9%; Mean accuracy (%), Table S14 ([1]; MQC (nominal as E14)): 105.0%; Mean accuracy (%), Table S9 ([2]; HQC (nominal as E15)): 111.0%; Mean accuracy (%), Table S9 ([2]; LQC (nominal as E13)): 105.1%; Mean accuracy (%), Table S9 ([2]; MQC (nominal as E14)): 106.3%"
,,,,,,,,,,98.8%,113.0%,103.4%,99.5%,112.8%,103.9%,101.3%,110.7%,105.2%,98.42%,"C[C@H]1COc2c(N3CCN(C)CC3)c(F)cc3c(=O)c(C(=O)O)cn1c23 [Levofloxacin, levofloxacin]","Mean accuracy (%), Table S9 ([2]; HQC (nominal as E15)): 103.6%; Mean accuracy (%), Table S9 ([2]; LQC (nominal as E13)): 114.0%; Mean accuracy (%), Table S9 ([2]; MQC (nominal as E14)): 106.1%"

# Continued, compound first:
Compound,"Mean accuracy (%), Table S15 ([1]; HQC (nominal as E15))","Mean accuracy (%), Table S15 ([1]; LQC (nominal as E13))","Mean accuracy (%), Table S15 ([1]; MQC (nominal as E14))","Mean accuracy (%), Table S17 ([1]; HQC (nominal as E15))","Mean accuracy (%), Table S17 ([1]; LQC (nominal as E13))","Mean accuracy (%), Table S17 ([1]; MQC (nominal as E14))","Mean accuracy (%), Table S16 ([1]; HQC (nominal as E15))","Mean accuracy (%), Table S16 ([1]; LQC (nominal as E13))","Mean accuracy (%), Table S16 ([1]; MQC (nominal as E14))","Mean accuracy (%), Table S18 ([1]; HQC (nominal as E15))","Mean accuracy (%), Table S8 ([2]; HQC (nominal as E15))","Mean accuracy (%), Table S8 ([2]; LQC (nominal as E13))","Mean accuracy (%), Table S8 ([2]; MQC (nominal as E14))","Mean accuracy (%), Table S10 ([2]; HQC (nominal as E15))","Mean accuracy (%), Table S10 ([2]; LQC (nominal as E13))","Mean accuracy (%), Table S10 ([2]; MQC (nominal as E14))","Mean accuracy (%), Table S7 [2, 4]","Mean accuracy (%), Table S7 [2, 5]","Mean accuracy (%), Table S7 [2, 6]",32 Day Stability (%) [3],other results
"C[C@@H](O)[C@H]1C(=O)N2C(C(=O)O)=C(S[C@@H]3CN[C@H](CNS(N)(=O)=O)C3)[C@H](C)[C@H]12 [Doripenem, doripenem]",82.4%,73.1%,77.1%,100.1%,104.0%,103.9%,64.1%,64.6%,60.6%,105.8%,103.1%,104.8%,105.2%,103.0%,108.0%,111.3%,98.9%,104.0%,100.7%,99.13%,"Stability verdict (within ±15% of nominal) ([1]; 2 weeks): instability; Stability verdict (within ±15% of nominal) ([1]; 4 weeks): instability; Mean accuracy (%), Table S18 ([1]; LQC (nominal as E13)): 99.1%; Mean accuracy (%), Table S18 ([1]; MQC (nominal as E14)): 104.7%; Mean accuracy (%), Table S11 ([1]; HQC (nominal as E15)): 98.0%; Mean accuracy (%), Table S11 ([1]; LQC (nominal as E13)): 91.0%; Mean accuracy (%), Table S11 ([1]; MQC (nominal as E14)): 97.0%; Mean accuracy (%), Table S13 ([1]; HQC (nominal as E15)): 98.3%; Mean accuracy (%), Table S13 ([1]; LQC (nominal as E13)): 100.6%; Mean accuracy (%), Table S13 ([1]; MQC (nominal as E14)): 96.9%; Mean accuracy (%), Table S12 ([1]; HQC (nominal as E15)): 102.4%; Mean accuracy (%), Table S12 ([1]; LQC (nominal as E13)): 100.0%; Mean accuracy (%), Table S12 ([1]; MQC (nominal as E14)): 103.1%; Mean accuracy (%), Table S14 ([1]; HQC (nominal as E15)): 106.3%; Mean accuracy (%), Table S14 ([1]; LQC (nominal as E13)): 99.2%; Mean accuracy (%), Table S14 ([1]; MQC (nominal as E14)): 106.9%"
"Cn1c(N)c(NC(=O)NCCN)c[n+]1CC1=C(C(=O)O)N2C(=O)[C@@H](NC(=O)/C(=N\OC(C)(C)C(=O)[O-])c3nsc(N)n3)[C@H]2SC1 [Ceftolozane, ceftolozane]",93.2%,91.3%,94.7%,94.1%,91.4%,94.3%,90.8%,86.1%,90.4%,93.9%,113.3%,106.4%,109.8%,112.0%,107.2%,111.3%,105.1%,106.0%,97.2%,107.69%,"Mean accuracy (%), Table S18 ([1]; LQC (nominal as E13)): 87.5%; Mean accuracy (%), Table S18 ([1]; MQC (nominal as E14)): 96.2%; Mean accuracy (%), Table S11 ([1]; HQC (nominal as E15)): 86.5%; Mean accuracy (%), Table S11 ([1]; LQC (nominal as E13)): 86.9%; Mean accuracy (%), Table S11 ([1]; MQC (nominal as E14)): 86.4%; Mean accuracy (%), Table S13 ([1]; HQC (nominal as E15)): 86.3%; Mean accuracy (%), Table S13 ([1]; LQC (nominal as E13)): 91.1%; Mean accuracy (%), Table S13 ([1]; MQC (nominal as E14)): 87.7%; Mean accuracy (%), Table S12 ([1]; HQC (nominal as E15)): 99.3%; Mean accuracy (%), Table S12 ([1]; LQC (nominal as E13)): 99.0%; Mean accuracy (%), Table S12 ([1]; MQC (nominal as E14)): 98.6%; Mean accuracy (%), Table S14 ([1]; HQC (nominal as E15)): 100.8%; Mean accuracy (%), Table S14 ([1]; LQC (nominal as E13)): 89.3%; Mean accuracy (%), Table S14 ([1]; MQC (nominal as E14)): 98.0%; Mean accuracy (%), Table S9 ([2]; HQC (nominal as E15)): 101.0%; Mean accuracy (%), Table S9 ([2]; LQC (nominal as E13)): 97.5%; Mean accuracy (%), Table S9 ([2]; MQC (nominal as E14)): 90.0%"
"CC(C)(O/N=C(\C(=O)N[C@@H]1C(=O)N2C(C(=O)[O-])=C(C[n+]3ccccc3)CS[C@H]12)c1csc(N)n1)C(=O)O [Ceftazidime, ceftazidime]",97.6%,99.2%,106.0%,103.0%,104.3%,105.2%,100.5%,105.0%,100.4%,103.8%,109.2%,110.0%,109.0%,112.0%,107.7%,111.0%,109.6%,94.9%,112.0%,101.73%,"Mean accuracy (%), Table S18 ([1]; LQC (nominal as E13)): 103.5%; Mean accuracy (%), Table S18 ([1]; MQC (nominal as E14)): 106.4%; Mean accuracy (%), Table S11 ([1]; HQC (nominal as E15)): 99.5%; Mean accuracy (%), Table S11 ([1]; LQC (nominal as E13)): 97.8%; Mean accuracy (%), Table S11 ([1]; MQC (nominal as E14)): 105.0%; Mean accuracy (%), Table S13 ([1]; HQC (nominal as E15)): 99.4%; Mean accuracy (%), Table S13 ([1]; LQC (nominal as E13)): 102.6%; Mean accuracy (%), Table S13 ([1]; MQC (nominal as E14)): 101.0%; Mean accuracy (%), Table S12 ([1]; HQC (nominal as E15)): 100.3%; Mean accuracy (%), Table S12 ([1]; LQC (nominal as E13)): 100.3%; Mean accuracy (%), Table S12 ([1]; MQC (nominal as E14)): 105.0%; Mean accuracy (%), Table S14 ([1]; HQC (nominal as E15)): 107.7%; Mean accuracy (%), Table S14 ([1]; LQC (nominal as E13)): 98.8%; Mean accuracy (%), Table S14 ([1]; MQC (nominal as E14)): 103.0%; Mean accuracy (%), Table S9 ([2]; HQC (nominal as E15)): 113.1%; Mean accuracy (%), Table S9 ([2]; LQC (nominal as E13)): 93.8%; Mean accuracy (%), Table S9 ([2]; MQC (nominal as E14)): 111.5%"
